Patent US20130254944A1, “Herbicide Tolerant Soybeans and Methods of Use” (PIONEER HI BRED INTERNATIONAL INC, priority 2012, published 2013)

What was measured:
Format in all cases: in vivo
[1] = system: soybean having the Als2 mutation; test: Greenhouse postemergence test of ALS-inhibiting herbicides, soybean with Als2 mutation; settings: for Avg response (% phytotoxicity), Trait Als2: Table 2; for EC10, Als2: rate of herbicide estimated to cause 10% phytotoxic response, loglogistic fit
Procedure: (§1) Soybean lines having wild type als1 & 2 genes, the Als1 mutation, the Als2 mutation, or both the Als1 and Als2 mutations were evaluated for their response to various herbicides. Two seeds from each line were planted into 4-inch pots containing Redi-Earth potting mix (Sun Gro Horticulture Canada Ltd. 52130 RR65, Seba Beach, Alberta TOE 2B0), with two replications planted for each treatment. Pots were placed in flats at 15 pots/flat, and the resulting plants were grown in a greenhouse environment supplemented with lighting (16 hr photoperiod) for the duration of the test. Selected herbicides representing the mode of action that inhibits the acetolactate synthase enzyme, also known as the acetohydroxyacid synthase enzyme, were applied postemergence to soybean when soybean plants were at the V2 growth stage, which is the stage at which the first two trifoliolate leaves were expanded.
(§2) Eleven active ingredients representing the five chemical families with herbicidal activity on the acetolactate synthase enzyme were tested. These herbicides can cause a phytotoxic response in wild type soybean plants. The five chemical families tested were sulfonylaminocarbonyltriazolinone (also known as triazolinone), imidazolinone, sulfonylurea, pyrimidinylthiobenzoate, and triazolopyrimidine. Application rates ranged from 0.5 times to eight times the currently labeled application rate for each active ingredient with spray application volume at 30 gallons/acre. The application rates tested were 0.5×, 1×, 2×, 4× and 8× the label rate for each herbicide. Herbicidal active ingredients were applied as formulated materials dispersed in water containing 0.25% nonionic surfactant (Trend® 90).
(§3) The test was evaluated by visually scoring plant phenotype 14 days after the herbicides were applied. Controls consisted of soybean plants of the same variety that received no herbicide treatments for each of all the varieties tested. Soybean response was recorded on a zero to 100 visual scale in which zero is no phytotoxic response and 100 is plant death fourteen days after the herbicides were applied. Soybean response (percent phytotoxicity) to postemergence applications of herbicides inhibiting the acetolactate synthase enzyme test results are shown in Table 1.
(§4) Results in Table 1 were evaluated using the isobole method for analyzing interactions. […] Here the biologically active agents that are being assessed for interaction (synergy) are gene mutations in soybean. The effectiveness of the genes in providing improved tolerance to ALS-inhibiting herbicides was assessed by applying increasing doses of herbicides to each soybean line with its mutation(s).
(§5) An isobole reduces a dose response surface in three dimensional space to a two dimensional plot by fixing a defined response level (e.g., 50% response). The isobole plot is a graph in the Cartesian plane with a straight line connecting the isoeffective rates of the individual components of the combination. This straight line represents expected responses for zero interactive combinations. The isoeffective rate used to create the isobole is often the EC50, the rate estimated to elicit 50% response, but other ECx values can be used. Since the isobole method is based on the potency of the components of the combination, an experimental design testing a range of rates expected to elicit the full range of responses (e.g., 0 to maximum response) is best. (Ferry et al. (2005) 2005 Conference on Applied Statistics in Agriculture Proceedings pp 33-50, Manhattan, Kans., Kansas State Univ.; Green and Streibig (1993) Herbicide Mixtures, pp 117-134 in Herbicide Bioassays, Streibig and Hudsk Eds, CRC, Boca Raton, Fla.).
(§6) Loglogistic dose response curves were fit to percent phytotoxicity response data using log 10 of dose (McCullagh and Nelder (1989) Generalized Linear Models, Chapman & Hall, London). Curves were fit using the logit link with normal errors. […]

[2] = system: soybean having both the Als1 and Als2 mutations; test: Greenhouse postemergence test of ALS-inhibiting herbicides and isobole analysis, soybean with Als1 and Als2 mutations; settings: for Avg response (% phytotoxicity), Trait Als1 + Als2: Table 2; for EC10, Als1 + Als2: rate of herbicide estimated to cause 10% phytotoxic response, loglogistic fit
Procedure: as §1, §2, §3, §4, §5, §6

wild type soybean = test: Greenhouse postemergence test of ALS-inhibiting herbicides, wild type soybean
Procedure: as §1, §2, §3

[3] = system: soybean having the Als1 mutation; test: Greenhouse postemergence test of ALS-inhibiting herbicides, soybean with Als1 mutation; settings: for Avg response (% phytotoxicity), Trait Als1: Table 2; for EC10, Als1: rate of herbicide estimated to cause 10% phytotoxic response, loglogistic fit
Procedure: as §1, §2, §3, §4, §5, §6

[4] = 35 g ai/ha postemergence at V2, scored 14 days after application
[5] = 70 g ai/ha postemergence at V2, scored 14 days after application
[6] = 140 g ai/ha postemergence at V2, scored 14 days after application
[7] = 280 g ai/ha postemergence at V2, scored 14 days after application
[8] = 560 g ai/ha postemergence at V2, scored 14 days after application
[9] = 17.5 g ai/ha postemergence at V2, scored 14 days after application

| SMILES | Soybean response (percent phytotoxicity), Als2 [1, 4] [%] | Avg response (% phytotoxicity), Trait Als2 ([1]; 35 g ai/ha) [%] | Soybean response (percent phytotoxicity), Als2 [1, 5] [%] | Avg response (% phytotoxicity), Trait Als2 ([1]; 70 g ai/ha) [%] | Soybean response (percent phytotoxicity), Als2 [1, 6] [%] | Avg response (% phytotoxicity), Trait Als2 ([1]; 140 g ai/ha) [%] | Soybean response (percent phytotoxicity), Als2 [1, 7] [%] | Avg response (% phytotoxicity), Trait Als2 ([1]; 280 g ai/ha) [%] | EC10, Als2 [1] [g ai/ha] | Soybean response (percent phytotoxicity), Als1 + Als2 [2, 4] [%] | Avg response (% phytotoxicity), Trait Als1 + Als2 ([2]; 35 g ai/ha) [%] | Soybean response (percent phytotoxicity), Als1 + Als2 [2, 5] [%] | Avg response (% phytotoxicity), Trait Als1 + Als2 ([2]; 70 g ai/ha) [%] | Soybean response (percent phytotoxicity), Als1 + Als2 [2, 6] [%] | Avg response (% phytotoxicity), Trait Als1 + Als2 ([2]; 140 g ai/ha) [%] | Soybean response (percent phytotoxicity), Als1 + Als2 [2, 7] [%] | Avg response (% phytotoxicity), Trait Als1 + Als2 ([2]; 280 g ai/ha) [%] | EC10, Als1 + Als2 [2] [g ai/ha] | Soybean response (percent phytotoxicity), Wild type (wild type soybean; [4]) [%] | Soybean response (percent phytotoxicity), Wild type (wild type soybean; [5]) [%] | also measured |
| --- | --- | --- | --- | --- | --- | --- | --- | --- | --- | --- | --- | --- | --- | --- | --- | --- | --- | --- | --- | --- | --- |
| CCc1cnc(C2=NC(C)(C(C)C)C(=O)N2)c(C(=O)O)c1 (stereo not shown) [Imazethapyr] | 0 | 0 | 0 | 0 | 0 | 0 | 0 | 0 | 560.00 | 0 | 0 | 0 | 0 | 0 | 0 | 5 | 5 | 549.93 | 0 | 0 | Soybean response (percent phytotoxicity), Als2 [1, 8]: 5%; Avg response (% phytotoxicity), Trait Als2 ([1]; 560 g ai/ha): 10%; Soybean response (percent phytotoxicity), Als1 + Als2 [2, 8]: 10%; Avg response (% phytotoxicity), Trait Als1 + Als2 ([2]; 560 g ai/ha): 10%; Soybean response (percent phytotoxicity), Wild type (wild type soybean; [6]): 0%; Soybean response (percent phytotoxicity), Wild type (wild type soybean; [7]): 15%; Soybean response (percent phytotoxicity), Wild type (wild type soybean; [8]): 20%; Soybean response (percent phytotoxicity), Als1 [3, 4]: 0%; Avg response (% phytotoxicity), Trait Als1 ([3]; 35 g ai/ha): 0%; Soybean response (percent phytotoxicity), Als1 [3, 5]: 0%; Avg response (% phytotoxicity), Trait Als1 ([3]; 70 g ai/ha): 0%; Soybean response (percent phytotoxicity), Als1 [3, 6]: 0%; Avg response (% phytotoxicity), Trait Als1 ([3]; 140 g ai/ha): 0%; Soybean response (percent phytotoxicity), Als1 [3, 7]: 10%; Avg response (% phytotoxicity), Trait Als1 ([3]; 280 g ai/ha): 10%; Soybean response (percent phytotoxicity), Als1 [3, 8]: 20%; Avg response (% phytotoxicity), Trait Als1 ([3]; 560 g ai/ha): 20%; EC10, Als1 [3]: 333.22 g ai/ha |
| COc1cc(OC)nc(NC(=O)NS(=O)(=O)c2ncccc2C(=O)N(C)C)n1 [Nicosulfuron] | 0 | 0 | 0 | 0 | 20 | 20 | 35 | 35 | 105.60 | 0 | 0 | 0 | 0 | 0 | 0 | 5 | 5 | >280 | 10 | 20 | Soybean response (percent phytotoxicity), Als2 [1, 9]: 0%; Avg response (% phytotoxicity), Trait Als2 ([1]; 17.5 g ai/ha): 0%; Soybean response (percent phytotoxicity), Als1 + Als2 [2, 9]: 0%; Avg response (% phytotoxicity), Trait Als1 + Als2 ([2]; 17.5 g ai/ha): 0%; Soybean response (percent phytotoxicity), Wild type (wild type soybean; [9]): 0%; Soybean response (percent phytotoxicity), Wild type (wild type soybean; [6]): 45%; Soybean response (percent phytotoxicity), Wild type (wild type soybean; [7]): 65%; Soybean response (percent phytotoxicity), Als1 [3, 9]: 0%; Avg response (% phytotoxicity), Trait Als1 ([3]; 17.5 g ai/ha): 0%; Soybean response (percent phytotoxicity), Als1 [3, 4]: 0%; Avg response (% phytotoxicity), Trait Als1 ([3]; 35 g ai/ha): 0%; Soybean response (percent phytotoxicity), Als1 [3, 5]: 0%; Avg response (% phytotoxicity), Trait Als1 ([3]; 70 g ai/ha): 0%; Soybean response (percent phytotoxicity), Als1 [3, 6]: 5%; Avg response (% phytotoxicity), Trait Als1 ([3]; 140 g ai/ha): 5%; Soybean response (percent phytotoxicity), Als1 [3, 7]: 25%; Avg response (% phytotoxicity), Trait Als1 ([3]; 280 g ai/ha): 25%; EC10, Als1 [3]: 187.47 g ai/ha |
